Data: patent US20230061432A1, “NEW TECHNOLOGY TO CONJUGATE THE TACCALONOLIDE MICROTUBULE STABILIZERS WITH LINKERS/PAYLOADS” (priority 2019, published 2023)

Tests used:
[1] = target: T1, purified porcine brain tubulin (Sus scrofa, UniProt P02554); assay: biochemical tubulin polymerization assay; conditions: tubulin 20 μM
T1 construct: purified porcine brain tubulin (Cytoskeleton); purchased Cytoskeleton; host or cells: porcine brain
Protocol: Exemplary results of the […] tubulin polymerization assay are illustrated in FIG. 3, FIG. 4B, and FIG. 5B and were obtained as described in Risinger et al., Cancer Research, 2013.
Biochemical tubulin polymerization assays were performed using purified porcine brain tubulin (Cytoskeleton). In individual wells of a 96-well plate, 1 μL of each 100× drug stock was incubated with 20 μM porcine brain tubulin in GPEM glycerol buffer (1 mM GTP, 10% glycerol, 80 mM PIPES pH 6.9, 2 mM MgCl2 and 0.5 mM EGTA) in a final volume of 100 μL. Pure porcine tubulin was prepared on ice at 4° C. to inhibit tubulin polymerization until the assay was initiated, while the plate reader was pre-warmed to 37° C. Tubulin polymerization was measured every minute for an hour by light scattering at 340 nm in a Spectramax plate reader using SoftMax software (Molecular Devices). Light scattering was normalized to the initial measurement for each well. For the probe-tubulin binding assay, samples were prepared on ice in tubes instead of a 96 well plate, and moved to a 37° C. heat block to initiate binding and polymerization. The time zero (0′) sample consisted of tubulin polymerization buffer prior to addition of taccalonolide probe. […]

HeLa cells = assay: sulforhodamine B (SRB) antiproliferative assay; assay type: cell-based, human; conditions: 48 h; mean ± SEM; read-out: GI50, concentration that causes a 50% decrease in proliferation, HeLa
Source text: (§1) HCC1806 (CRL-2335) and HCC1937 (CRL-2336) human triple-negative breast cancer cells, HeLa (CCL-2) cervical cancer cells and SK-OV-3 (HTB-77) ovarian cancer cells were obtained from ATCC (Manassas, Va.) and validated by STR profiling (Genetica). SK-OV-3 cells stably overexpressing Pgp by adenoviral-mediated expression of MDR1 were obtained from Dr. Susan Kane and subcloned by limiting dilution to isolate the single-cell clones utilized in these studies as SK-OV-3-MDR-1-6/6 (Risinger, A. L. et al. (2008) Cancer Res. 68, 8881-8888). A single-cell clone from transfection of HeLa cells with βIII-tubulin, designated wild type βIII, was constructed and obtained from Dr. Richard Luduena (Risinger, A. L. et al. (2008) Cancer Res. 68, 8881-8888). HCC1806 and HCC1937 cells were cultured in RPMI 1640 media (Corning) with 10% FBS (Cellgro) and 50 μg/mL gentamicin (Gibco). HeLa, […] expressing HeLa, SK-OV-3 and SK-OV-3/MDR-1-6/6 cells were grown in BME media with Earle's salts (Gibco) with 10% FBS, 1× final 1% GlutaMax™ Supplement (Gibco), and […] gentamicin. The use of HeLa cells allows for the direct comparison of the in vitro potency as compared to other compounds of this class, which have been predominantly reported in this line and compound potencies are consistent among three additional cancer cell lines. HeLa cells were also used for ectopic expression of tubulin mutants due to the high degree of transfectability of this cell line. Cells were tested for mycoplasma contamination using the Mycoplasma Detection Kit-Quick Test (Cat: B39032, Lot: JW004).
(§2) The sulforhodamine B (SRB) assay was utilized to examine the antiproliferative and cytotoxic effects of the compounds (Skehan, P. et al. (1990) J. Natl. Cancer Inst. 82, 1107-1112; Vichai and Kirtikara (2006) Nat. Protoc. 1, 1112-1116). Approximately 2,000 cells per well (for SK-OV-3, HeLa and βIII-tubulin expressing HeLa) or 4,000 cells per well (for HCC1806 and HCC1937) were seeded in 96-well plates. For each biological replicate, cells were treated in triplicate with each concentration of compound or vehicle control for 48 h in a final volume of 200 μL. The plates were fixed with 10% trichloroacetic acid for protein precipitation of adherent cells and then washed with distilled water. 100 μL of SRB dye, which binds protein stoichiometrically, was added and then unbound dye removed with 1% acetic acid followed by the addition of 200 μL 10 mM Tris to solubilize the dye, which was quantified by absorbance at 560 nm. The percent growth of treated cells relative to the density at the time of drug addiction was calculated as compared to vehicle treated cells.

SK-OV-3 cells = assay: sulforhodamine B (SRB) antiproliferative assay; assay type: cell-based, human; conditions: 48 h; mean ± SEM; read-out: GI50, concentration that causes a 50% decrease in proliferation, SK-OV-3
Source text: as §1, §2

T1 sequence (P02554 whole entry): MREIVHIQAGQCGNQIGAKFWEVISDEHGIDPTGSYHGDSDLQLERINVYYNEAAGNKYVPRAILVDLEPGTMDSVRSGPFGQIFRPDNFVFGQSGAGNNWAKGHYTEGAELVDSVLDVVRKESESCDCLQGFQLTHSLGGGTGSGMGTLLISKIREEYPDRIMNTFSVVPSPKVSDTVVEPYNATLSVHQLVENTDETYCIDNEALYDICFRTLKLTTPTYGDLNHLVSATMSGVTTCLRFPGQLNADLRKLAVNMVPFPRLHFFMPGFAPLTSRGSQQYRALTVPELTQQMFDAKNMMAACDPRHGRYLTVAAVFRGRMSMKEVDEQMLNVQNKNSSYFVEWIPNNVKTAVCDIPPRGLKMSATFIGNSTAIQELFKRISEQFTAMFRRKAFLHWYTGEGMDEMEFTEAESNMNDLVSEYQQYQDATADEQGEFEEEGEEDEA
T1 sequence (P02550 whole entry partner): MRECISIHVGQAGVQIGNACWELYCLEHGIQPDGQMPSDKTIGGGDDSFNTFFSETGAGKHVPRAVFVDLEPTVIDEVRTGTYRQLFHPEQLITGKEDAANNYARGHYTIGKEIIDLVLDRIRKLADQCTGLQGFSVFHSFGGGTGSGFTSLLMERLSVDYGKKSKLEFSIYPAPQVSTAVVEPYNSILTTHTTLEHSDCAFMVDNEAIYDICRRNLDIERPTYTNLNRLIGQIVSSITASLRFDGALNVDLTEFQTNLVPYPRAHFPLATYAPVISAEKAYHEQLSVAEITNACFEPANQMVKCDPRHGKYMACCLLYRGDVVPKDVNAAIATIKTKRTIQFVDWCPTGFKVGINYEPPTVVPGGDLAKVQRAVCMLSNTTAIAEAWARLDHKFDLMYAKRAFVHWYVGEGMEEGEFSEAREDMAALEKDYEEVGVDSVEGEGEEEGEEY

CC(=O)O[C@H]1[C@H]2[C@H]([C@@H]3[C@@H](O)[C@@H]4[C@H]([C@H](C)[C@@H]5O[C@@]56OC(=O)[C@@](C)(O)[C@]46C)[C@@]3(C)[C@H]1OC(C)=O)[C@@H](O)C(=O)[C@H]1C[C@@H]3O[C@@H]3[C@H](OC(C)=O)[C@]21C [compound 2, taccalonolide AJ, reference compound]
concentration range promoting polymerization of purified tubulin [1]: 5 to 20 µM | GI50 (HeLa cells): 8.5 nM | GI50 (SK-OV-3 cells): 6.2 nM
